Reference: patent US9051345B2, “Metalloinsertor complexes targeted to DNA mismatches” (CALIFORNIA INSTITUTE OF TECHNOLOGY, priority 2011, dated 2015)

Experiments:
Format in all cases: cell-based, human
HCT116N cells = assay: Cell death mode flow cytometry assay (YO-PRO-1 / PI dye exclusion); details: 20 μM, 72 hours, untreated 62±0.6%
Source text: (§1) To characterize the cell death occurring in response to rhodium treatment, a dye exclusion flow cytometry assay was used as described in Idziorek et al., 1995 J. Immunol. Methods, 185, 249-258, the entire contents of which is incorporated herein by reference. The assay differentiates between live cells, dead cells, and cells undergoing apoptosis or necrosis through concurrent staining with propidium iodide (a dead cell permeable dye) and YO-PRO-1 (an apoptotic cell permeable dye). By plotting the fluorescence of the YO-PRO-1 channel against the PI channel, a pattern emerges. Healthy cells are seen in the lower lefthand corner of the plot in FIGS. 36A-36D. […] Dead cells admit both dyes and are therefore seen in the upper righthand quadrant of the image. Upon flow cytometry analysis, cells can be classified as live, apoptotic, necrotic, or dead by defining regions in the fluorescence plane corresponding to each category.
(§2) The HCT116N and HCT116O cell lines were incubated with 0-25 μM of [Rh(HDPA)2chrysi]^3+ for 24-72 hours. After harvesting the cells and staining with both PI and YO-PRO-1, the cells were analyzed by flow cytometry to obtain raw fluorescence data. Representative data for 20 μM rhodium treatment for 72 hours are shown. YO-PRO-1 fluorescence is shown on the y-axis, and PI fluorescence is shown on the x-axis. The raw data were analyzed by gating the fluorescence events into one of four categories, depending on the fluorescence levels of the two dyes. FIGS. 37A-37B also show histograms of live, apoptotic, necrotic, and dead cells for the HCT116N and HCT116O cell lines based on the flow cytometry. Treatment with the indicated rhodium complex was either 15 or 20 µM [Rh(HDPA)2chrysi]^3+ for 72 hours.
(§3) After 24, 48, or 72 hour incubation with the selected rhodium complex, cells were harvested from adherent culture by trypsinization and washed with cold PBS, and centrifuged at 2,000 rpm for 5 minutes. The resultant pellets were resuspended in PBS to a concentration of 10^6 cells/mL and stained with propidium iodide to a final concentration of 1 μg/mL and with YO-PRO-1 (an apoptotic cell permeable dye) to a final concentration of 200 nM for 30 minutes prior to analysis by flow cytometry.

HCT116O cells = assay: as above; details: for mode of cell death: YO-PRO-1 and PI, HCT116O versus HCT116N
Source text: as §1, §2, §3

[1] = system: HCT116N and HCT116O cells; assay: Cell cycle distribution flow cytometry assay (PI); details: 20 μM, 24 and 48 hours
Procedure: Cells were harvested from adherent culture by trypsinization and washed with cold PBS. The resultant pellet was resuspended in PBS (chilled to 4° C.), and ice-cold ethanol was added dropwise to a final concentration of 70% (v/v), with continuous gentle agitation. Cells were fixed at 4° C. for 30 minutes and stored for up to one week. Prior to analysis, the fixed cells in 70% ethanol were diluted 1:3 in cold PBS and centrifuged at 1,400×g for 5 minutes. The resultant pellet was washed twice and resuspended in ice-cold PBS. Ribonuclease was added to a final concentration of 30 μg/mL and the cells were incubated overnight at 4° C. The next day propidium iodide was added to a final concentration of 20 μg/mL and cells were analyzed by flow cytometry. Data analysis was performed using the FloJo software package (v 8.7.1).

[Rh(HDPA)2chrysi]^3+
live cells HCT116N after treatment (HCT116N cells): 54±5.1%
live cells HCT116O after treatment (HCT116O cells; 20 μM, 72 hours, untreated 79±3.8%): 37±5.3%
mode of cell death (HCT116O cells): induces necrosis preferentially in the MMR-deficient HCT116O cell line
mode of cell death (HCT116O cells; listed as [Rh(HDPA)2chrysi]3^+): necrotic rather than apoptotic pathway
change in percentage of cells in the apoptotic region (HCT116O cells; either cell line): no significant change
effect on the cell cycle [1]: disruption of the cell cycle
